Experiment: High fat diet induced obesity (DIO) mouse model
Assay type: in vivo, C57CL/6J mice
Parameters: Epididymal Fat weight / Retroperitoneal Fat weight / Total Fat (sum of the three fat deposits) / Retroperitoneal Fat / Total Fat / Epididymal Fat, absolute weight / Retroperitoneal Fat, absolute weight: unit not given here
Settings: DIO mice; for FER (Food efficiency ratio): FER = body weight gain/food intake; for Hepatocellular ballooning (0-2) / Lobular Inflammation (0-3) / NSAH (sum) / Steatosis (0-3): liver pathology score; for Total Fat: sum of the three fat pads
Protocol: C57CL/6J mice aged 4-6 weeks (Korea Research Institute of Bioscience & Biotechnology, Ohchang, Korea) were housed in Polycarbonate cages (five mice per cage) in a room with a 12 hr:12 hr light-dark cycle and an ambient temperature of 24° C. All the mice were fed a commercial chow diet for 1 week after arrival in the animal facility. Mice were then divided into normal and obesity groups and fed with normal diet (ND) and high fat diets (HFD) respectively. The HFD group was divided into multiple treatment groups: a high fat diet vehicle group (HFD), an orlistat (purchased as OTC drug Alli®) positive control treatment group (ORI, 40 mg/kg of animal weight, 2 times/day) and optionally a sibutramine positive control treatment group (10 mg/kg, 1 time/day). The HFD contained 340 g of fat/kg of HFD (310 g lard plus 30 g soybean oil; Harlan Laboratories, USA). The HFD was formulated to provide 60% of the total energy generated by the diet from fat by replacing carbohydrate energy with lard and soybean oil, whereas the normal diet (ND) group was fed a diet providing only 18% of the total diet energy from fat(Harlan Laboratories, USA).
Body weight was measured once each week and feed intake was measured twice per week. At the end of the experimental period, following a 12 hr. fasting period, the animals were anesthetized with ether, and blood was drawn from the abdominal vein. Liver and kidney and adipose tissues (epididymal, retroperitoneal, perirenal adipose tissues) were removed from each animal, rinsed with physiological saline, and weighed. Serum concentrations of glucose, total cholesterol, triglycerides, and LDL-cholesterol were determined using automatic analyzer (INTEGRA 400, Roche, Germany). Statistical significance of test results was measured using the Student's t-test.

[1] = SIB 10 mg/kg, ORI 40 mg/kg, Mutamba extract 32 (G1) 1000 mg/kg, mean
[2] = SIB 10 mg/kg, ORI 40 mg/kg, Mutamba extract 33-2 G1 1000 mg/kg, mean
[3] = combination (1:1) 2000 mg/kg twice a day, group mean
[4] = combination (5:1) 1200 mg/kg twice a day by gavage, group mean
[5] = combination (5:1) 1200 mg/kg twice a day, biochemistry parameters, Table 85, first print
[6] = combination (5:1) 1200 mg/kg twice a day, biochemistry parameters, Table 85, second print
[7] = combination (10:1) 1100 mg/kg twice a day, biochemistry parameter
[8] = combination (10:1) 1100 mg/kg twice a day, group mean
[9] = plasma, Mean, G1 1,300 mg/kg twice a day

CCCCCCCCCCC[C@@H](C[C@@H]1OC(=O)[C@H]1CCCCCC)OC(=O)[C@H](CC(C)C)NC=O [ORI, orlistat]
Glu (ORI group, mean, Table 137): 194.00 mg/dL
HDL-C (ORI group, mean, Table 137): 62.42 mg/dL
LDL-C (ORI group, mean, Table 137): 4.03 mg/dL
T-chol (ORI group, mean, Table 137): 137.33 mg/dL
TG (ORI group, mean, Table 137): 27.83 mg/dL
Epididymal Fat, absolute weight (ORI group, mean, Table 138): 2.08
Liver, absolute organ weight (ORI group, mean, Table 138): 0.99 g
Perirenal Fat, absolute weight (ORI group, mean, Table 138): 0.28
Retroperitoneal Fat, absolute weight (ORI group, mean, Table 138): 0.57
Total Fat (sum of the three fat pads) (ORI group, mean, Table 138): 2.94
Average Body Weight Gain [1]: 0.038 g/day
Average Food Intake [1]: 2.826 g/day
Body Weight Gain [2]: 0.093 g/day
Food Intake [2]: 2.769 g/day
FER (Food efficiency ratio) (combination (1:1) 2000 mg/kg twice a day): 0.000
Food Intake [3]: 3.961 g/day
Weight Gain [3]: -0.002 g/day
FER (Food efficiency ratio) (combination (5:1) 1200 mg/kg twice a day by gavage): 0.000
Food Intake [4]: 3.961 g/day
Weight Gain [4]: -0.002 g/day
Glu [5]: 225.50 mg/dL
LDL-C [5]: 3.30 mg/dL
T-chol [5]: 134.00 mg/dL
TG [5]: 62.50 mg/dL
Glu [6]: 225.50 mg/dL
LDL-C [6]: 3.30 mg/dL
T-chol [6]: 134.00 mg/dL
TG [6]: 62.50 mg/dL
FER (Food efficiency ratio) (combination (10:1) 1100 mg/kg twice a day): 0.000
Glu [7]: 225.50 mg/dL
T-chol [7]: 134.00 mg/dL
TG [7]: 62.50 mg/dL
Food Intake [8]: 3.961 g/day
Weight Gain [8]: -0.002 g/day
Hepatocellular ballooning (0-2) (ORI group, mean, Table 139): 0.67
Lobular Inflammation (0-3) (ORI group, mean, Table 139): 1.33
NSAH (sum) (ORI group, mean, Table 139): 2.67
Steatosis (0-3) (ORI group, mean, Table 139): 0.67
Hepatocellular ballooning (0-2) (mean, Table 133): 0.33
Lobular Inflammation (0-3) (mean, Table 133): 1.50
NSAH (sum) (mean, Table 133): 2.17
Steatosis (0-3) (mean, Table 133): 0.33
Glu [9]: 269.17 mg/dL
T-chol [9]: 156 mg/dL
TG [9]: 88.3 mg/dL
Absolute Organ Weight, Total Fat (sum of the three fat pads (epididymal, retroperitoneal, perirenal), in g (unit assumed)): 2.952
Total Fat (G1 = 800 mg/kg orally twice a day): 2.82
Total Fat (G1 = 1,100 mg/kg orally twice a day): 2.82
Total Fat (G1 = 1,200 mg/kg orally twice a day): 2.82
Total Weight (week 0, G1 = 800 mg/kg orally twice a day, in g (unit assumed)): 40.22
Total Weight (week 0, G1 = 1,100 mg/kg orally twice a day, in g (unit assumed)): 40.22
Total Body Weight (week 0, G1 = 1,200 mg/kg orally twice a day, in g (unit assumed)): 40.22
Total Weight (week 0, ORI group, mean, Table 134, in g (unit assumed)): 38.61
Total Body Weight (week 0, ORI group, mean, Table 145, in g (unit assumed)): 40.22
Weight Gain (week 1, G1 = 800 mg/kg orally twice a day): −2.24
Total Weight (week 1, G1 = 800 mg/kg orally twice a day, in g (unit assumed)): 37.98
Weight Gain (week 1, G1 = 1,100 mg/kg orally twice a day): −2.24
Total Weight (week 1, G1 = 1,100 mg/kg orally twice a day, in g (unit assumed)): 37.98
Weight Gain (week 1, G1 = 1,200 mg/kg orally twice a day): −2.24
Total Body Weight (week 1, G1 = 1,200 mg/kg orally twice a day, in g (unit assumed)): 37.98
Total Weight (week 1, ORI group, mean, Table 134, in g (unit assumed)): 33.17
Weight Gain (week 1, ORI group, mean, Table 135): −5.43
Total Body Weight (week 1, ORI group, mean, Table 145, in g (unit assumed)): 37.98
Weight Gain (week 1, ORI group, mean, Table 146): −2.24
Weight Gain (week 2, G1 = 800 mg/kg orally twice a day): −6.14

Source: patent publication US20240024403A1, “Compositions and Methods for Managing Weight” (Unigen, Inc., priority 2012, published 2024)
